According to patent publication US7659404B2, “Broad spectrum 2-(substituted-amino)-benzothiazole sulfonamide HIV protease inhibitors” (Tibotec Pharmaceuticals Ltd., priority 2001, dated 2010):
pEC50: −log10 of the molar value. Read-outs that look alike come from different tables or passages of the source.

Legend:
[1] = system: clinically isolated HIV strain H; format: cell-based; conditions: FR=EC50(mutant strain)/EC50(HIV-1 strain LAI)
How it was run: (§1)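 MT4 cells, HIV or mock infection, 5 d with compound dilutions; MTT readout, formazan in isopropanol, A540. EC50/EC90 = conc. protecting 50/90% of cells from CPE; CC50 from mock-infected cells. FR = EC50 mutant/EC50 LAI.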

[2] = system: clinically isolated HIV strain T; format: cell-based; conditions: FR=EC50(mutant strain)/EC50(HIV-1 strain LAI)
How it was run: as §1

[3] = system: clinically isolated HIV strain J; format: cell-based; conditions: FR=EC50(mutant strain)/EC50(HIV-1 strain LAI)
How it was run: as §1

[4] = system: clinically isolated HIV strain O; format: cell-based; conditions: FR=EC50(mutant strain)/EC50(HIV-1 strain LAI)
How it was run: as §1

[5] = system: clinically isolated HIV strain I; format: cell-based; conditions: FR=EC50(mutant strain)/EC50(HIV-1 strain LAI)
How it was run: as §1

[6] = Pharmacokinetics after oral dosing in dogs (LC-MS); format: in vivo; conditions: blood, 10 mg/kg, or, dog, 10 mpk
Method: (§2) The pharmacokinetic properties of compounds 20, 88 and 90 were tested on rats and dogs. The compounds were evaluated in Whistar rats, source Iffa Credo, weighing approximately 350 g. Before dosing the animals were fasted overnight (approximately 12 h fasting period). The compounds were dissolved in DMSO. The results represented in the table concern the results from the oral dosing of the compounds. Blood was sampled at 30 min, 1 h, 2 h, 3 h, no pre-dose sample was taken. The amount of the compound in the biological sample was determined using LC-MS. In the table below “or” means oral dosing, “mpk” means mg per kilogram.

[7] = Pharmacokinetics after oral dosing in rats (LC-MS); format: in vivo, Whistar rats; conditions: for concentration at 3 h / Cmax: Wistar, blood, 10 mg/kg, or, rat, 10 mpk, DMSO; for concentration at 3 h: oral, read-out: C3hours; for Cmax: po
Method: as §2

virus strain S (R13080) = assay: microbe, parasite or virus in culture; format: cell-based, HIV; conditions: FR=EC50(mutant strain)/EC50(HIV-1 strain LAI); strain S
How it was run: as §1

virus strain F (R13025) = assay: microbe, parasite or virus in culture; format: cell-based, HIV; conditions: FR=EC50(mutant strain)/EC50(HIV-1 strain LAI); strain F
How it was run: as §1

HIV-1 strain LAI = assay: Cellular anti-HIV assay in MT4 cells (MTT), wild type laboratory strain; format: cell-based; conditions: read-out: EC50 value against HIV-1 strain LAI
Method: The compounds of the present invention were examined for anti-viral activity in a cellular assay. […] The cellular assay was performed according to the following procedure.
Cellular Assay Experimental Method:
HIV- or mock-infected MT4 cells were incubated for five days in the presence of various concentrations of the inhibitor. At the end of the incubation period, all HIV-infected cells have been killed by the replicating virus in the control cultures in the absence of any inhibitor. Cell viability is measured by measuring the concentration of MTT, a yellow, water soluble tetrazolium dye that is converted to a purple, water insoluble formazan in the mitochondria of living cells only. Upon solubilization of the resulting formazan crystals with isopropanol, the absorbance of the solution is monitored at 540 nm. The values correlate directly to the number of living cells remaining in the culture at the completion of the five day incubation. The inhibitory activity of the compound was monitored on the virus-infected cells and was expressed as EC50 and EC90. These values represent the amount of the compound required to protect 50% and 90%, respectively, of the cells from the cytopathogenic effect of the virus. The toxicity of the compound was measured on the mock-infected cells and was expressed as CC50, which represents the concentration of compound required to inhibit the growth of the cells by 50%. The selectivity index (SI) (ratio CC50/EC50) is an indication of the selectivity of the anti-HIV activity of the inhibitor.

[8] = system: clinically isolated HIV strain K; assay: Antiviral spectrum, cellular assay (fold resistance), strain K; format: cell-based; conditions: FR=EC50(mutant strain)/EC50(HIV-1 strain LAI)
How it was run: (§3)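 Fold resistance is the ratio of EC50 against the mutant isolate to EC50 against HIV-1 LAI. EC50 came from protection of infected MT4 cells over five days, scored by MTT reduction read at 540 nm.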

[9] = system: clinically isolated HIV strain P; assay: Antiviral spectrum, cellular assay (fold resistance), strain P; format: cell-based; conditions: FR=EC50(mutant strain)/EC50(HIV-1 strain LAI)
How it was run: as §3

[10] = system: clinically isolated HIV strain G; assay: Antiviral spectrum, cellular assay (fold resistance), strain G; format: cell-based; conditions: FR=EC50(mutant strain)/EC50(HIV-1 strain LAI)
How it was run: as §3

[11] = system: clinically isolated HIV strain E; assay: Antiviral spectrum, cellular assay (fold resistance), strain E; format: cell-based; conditions: FR=EC50(mutant strain)/EC50(HIV-1 strain LAI)
How it was run: as §3

[12] = system: clinically isolated HIV strain D; assay: Antiviral spectrum, cellular assay (fold resistance), strain D; format: cell-based; conditions: FR=EC50(mutant strain)/EC50(HIV-1 strain LAI)
How it was run: as §3

[13] = system: clinically isolated HIV strain Q; assay: Antiviral spectrum, cellular assay (fold resistance), strain Q; format: cell-based; conditions: FR=EC50(mutant strain)/EC50(HIV-1 strain LAI)
How it was run: as §3

[14] = system: clinically isolated HIV strain A; assay: Antiviral spectrum, cellular assay (fold resistance), strain A; format: cell-based; conditions: FR=EC50(mutant strain)/EC50(HIV-1 strain LAI)
How it was run: as §3

[15] = system: clinically isolated HIV strain B; assay: Antiviral spectrum, cellular assay (fold resistance), strain B; format: cell-based; conditions: FR=EC50(mutant strain)/EC50(HIV-1 strain LAI)
How it was run: as §3

[16] = system: clinically isolated HIV strain L; assay: Antiviral spectrum, cellular assay (fold resistance), strain L; format: cell-based; conditions: FR=EC50(mutant strain)/EC50(HIV-1 strain LAI)
How it was run: as §3

[17] = system: clinically isolated HIV strain N; assay: Antiviral spectrum, cellular assay (fold resistance), strain N; format: cell-based; conditions: FR=EC50(mutant strain)/EC50(HIV-1 strain LAI)
How it was run: as §3

[18] = system: clinically isolated HIV strain M; assay: Antiviral spectrum, cellular assay (fold resistance), strain M; format: cell-based; conditions: FR=EC50(mutant strain)/EC50(HIV-1 strain LAI)
How it was run: as §3

[19] = system: clinically isolated HIV strain R; assay: Antiviral spectrum, cellular assay (fold resistance), strain R; format: cell-based; conditions: FR=EC50(mutant strain)/EC50(HIV-1 strain LAI)
How it was run: as §3

[20] = system: clinically isolated HIV strain C; assay: Antiviral spectrum, cellular assay (fold resistance), strain C; format: cell-based; conditions: FR=EC50(mutant strain)/EC50(HIV-1 strain LAI)
How it was run: as §3

[21] = Human immunodeficiency virus 1, 120 h, MT4 cells, five days, MTT

SMILES	fold resistance (FR), strain H [1]	fold resistance (FR), strain T [2]	fold resistance (FR), strain J [3]	fold resistance (FR), strain O [4]	fold resistance (FR), strain I [5]	concentration at 3 h [7] [ng/mL]	Cmax [7] [ng/mL]	fold resistance (FR), strain S (virus strain S (R13080))	fold resistance (FR), strain F (virus strain F (R13025))	fold resistance (FR), strain K [8]	fold resistance (FR), strain P [9]	fold resistance (FR), strain G [10]	fold resistance (FR), strain E [11]	fold resistance (FR), strain D [12]	fold resistance (FR), strain Q [13]	fold resistance (FR), strain A [14]	fold resistance (FR), strain B [15]	fold resistance (FR), strain L [16]	pEC50 (HIV-1 strain LAI; [21])	fold resistance (FR), strain N [17]	also measured
CC(C)CN(C[C@@H](O)[C@H](Cc1ccccc1)NC(=O)O[C@H]1CO[C@H]2OCC[C@H]21)S(=O)(=O)c1ccc2nc(NCCN3CCCC3)sc2c1 [Compound 20]	0.5	2.6	0.2	0.2	0.4	401	1420	0.5	0.5	–	–	–	–	–	–	–	–	–	–	–	Cmax ([6]; DMSO): 713 ng/mL; plasma level ([7]; oral dosing, comment on Table 8 (rats and dogs)): high; pEC50 (HIV-1 strain LAI; Human immunodeficiency virus 1, MT4, 120 h): 6.30 to 7.30
CC(C)CN(C[C@@H](O)[C@H](Cc1ccccc1)NC(=O)O[C@H]1CO[C@H]2OCC[C@H]21)S(=O)(=O)c1ccc2nc(NCCN(C)C)sc2c1 [Compound 16]	0.3	6.6	0.3	0.3	0.3	–	–	1.6	0.4	0.2	0.1	0.2	0.3	0.2	0.2	0.2	0.3	0.1	> 7.30	0.4	fold resistance (FR), strain M [18]: 0.2; fold resistance (FR), strain R [19]: 0.2; fold resistance (FR), strain C [20]: 0.2
CC(C)CN(C[C@@H](O)[C@H](Cc1ccccc1)NC(=O)O[C@H]1CCOC1)S(=O)(=O)c1ccc2nc(NCCN(C)C)sc2c1 [Compound 90]	–	–	–	–	–	684	893	128.8	28.8	–	–	–	–	–	–	–	–	–	> 7.30	–	Cmax ([6]; DMSO): 550 ng/mL
CC(C)CN(C[C@@H](O)[C@H](Cc1ccccc1)NC(=O)O[C@H]1CO[C@H]2OCC[C@H]21)S(=O)(=O)c1ccc2nc(N(C)CCCN(C)C)sc2c1 [Compound 88]	–	–	–	–	–	225	254	26.3	8.7	–	–	–	–	–	–	–	–	–	> 7.30	–	Cmax ([6]; (PEG)): 379 ng/mL
Cc1cc(N)ccc1C(=O)NC(Cc1ccccc1)C(O)CN(CC(C)C)S(=O)(=O)c1ccc2nc(NC(=O)CN(C)C)sc2c1 (stereo not drawn) [Compound 43]	1.3	31.4	3.4	2.4	1.5	–	–	3.0	1.1	0.4	0.2	0.6	0.7	0.9	1.1	1.1	0.9	1.0	> 7.30	1.2	fold resistance (FR), strain M [18]: 1.2; fold resistance (FR), strain R [19]: 1.0; fold resistance (FR), strain C [20]: 1.1
CC(C)CN(CC(O)C(Cc1ccccc1)NC(=O)OC1COC2OCCC12)S(=O)(=O)c1ccc2nc(NC(=O)CN3CCCC3)sc2c1 (stereo not drawn) [Compound 12]	0.4	5.9	0.3	0.4	0.4	–	–	0.8	0.4	0.2	0.1	0.2	0.4	0.4	0.4	0.3	0.4	0.1	> 7.30	0.4	fold resistance (FR), strain M [18]: 0.2; fold resistance (FR), strain R [19]: 0.4; fold resistance (FR), strain C [20]: 0.3
